Experimental findings from patent US8569372B2, “Method for preventing or treating a disease, disorder or condition induced by retina ischemia” (priority 2011, dated 2013) are described below.

Molecules are shown by their SMILES.

One assay concerns HIF-1 Alpha mRNA. Put plainly: Real-time PCR of retinal mRNA after ischaemia/reperfusion: HIF-1 Alpha. The format is in vivo, Wistar rats. The settings on record: 100 μM SAC pre-treatment, 24 hours after I/R; control 0.56±0.15, vehicle 1.23±0.23; n=6. The procedure:
The rats (200-250 g) were anaesthetized and placed in a stereotaxic frame. The anterior chamber of one eye was cannulated with a 30-gauge needle connected to a 0.9% saline reservoir; this caused a high IOP (HIOP) of 120 mmHg for 60 minutes. Eye fundus whitening and a low ERG response confirmed induction of an ischaemic insult. A sham procedure was carried out on the controls. Drug administration involved the pre-administration (15-minute before 60-minute HIOP induced retinal ischaemia) of SAC (25, 50, 100 μM) or vehicle (saline; control). The ischemic eye of each test rat was treated with or without a single intravitreous injection of 5 μl of the test compound. […] The levels of Thy-1, HIF-1 Alpha, VEGF and MMP-9 mRNAs present in the retinas were determined using a real-time PCR technique. […] Relative quantification (a comparative method) was performed using the house keeping gene Beta-actin as the internal standard. This process allows the normalized quantification of the mRNA target (Ct) and takes into account the differences in the amount of total RNA added to each reaction (ΔCt). The relative HIF-1 Alpha/VEGF/MMP-9 expression changes were calculated as fold changes relative to the control with respect to the calibrator (ΔΔCt), which was represented by the control retina. […] The data obtained for each treatment were pooled, and a total percentage change relative to the control was calculated. […]
For orientation: Quantitative PCR measures a nucleic acid by following its amplification.

The next assay concerns MMP-9. Put plainly: ELISA of MMP-9 protein in RGC-5 cells under H2O2 oxidative stress. The settings on record: 100 μM SAC 15-minute pre-treatment, 500 μM H2O2 24 hours; control 29.33±4.93, H2O2 100.70±18.80; n=6. It is filed as cell-based. The procedure:
In the enzyme-linked immunosorbent assay (ELISA), the cells (2.5×10^4 in each well) were plated into 96-well plates. Each well contains 200 μl of DMEM (control) without or with H2O2. Next, the cells were incubated at 37° C. for 1 day and then shifted to serum free medium for the following day. In order to stimulate oxidative stress, 500 μM H2O2 (Sigma-Aldrich 18304/k0250, St Louis, Mo., USA) was then added for 24 hours as described elsewhere. Depending on the experimental protocol, SAC or vehicle was added to some samples 15 minutes before adding H2O2. […] Total protein was determined using a bicinchoninic acid protein kit (Thermo Fisher Scientific Inc., IL, U.S.A.). The HIF-1 Alpha/VEGF/MMP-9 levels in the cells/medium were measured using various ELISA kits, namely HIF-1 Alpha (Uscn Life Science Inc., Wuhan 430056, China); VEGF-A (BMS277/2, Bender […], Austria) and MMP-9 Duoset (D911, R&D, Minneapolis, Minn., U.S.A.). […] The HIF-1 Alpha/VEGF/MMP-9 concentration of each sample was determined by constructing a standard curve using 100 μl of sample diluent containing various amounts of HIF-1 Alpha/VEGF/MMP-9 pure protein (0-1000 pg/ml). […] The absorbance (optical intensity, O.D.) was detected at 450 nm by spectrophotometer (ELx800, Biotek, Winooski, Vt., U.S.A.). […]
For orientation: ELISA stands for enzyme-linked immunosorbent assay.

For the molecule `C=CCSC[C@H](N)C(=O)O` [SAC, S-allyl L-cysteine], in the assay with HIF-1 Alpha mRNA, the “HIF-1 Alpha mRNA ratio in the retina” value was determined as 0.76±0.09. In addition, the “MMP-9 protein level (ELISA)” value in the assay with MMP-9 is 52.55 ± 2.72 pg/mL.
